Results as given in publication PMC11396935, “Exploration of Compounds with 2-Phenylbenzo[d]oxazole Scaffold as Potential Skin-Lightening Agents through Inhibition of Melanin Biosynthesis and Tyrosinase Activity” (Molecules, 2024).
Read-outs that look alike come from different tables or passages of the source.

What was measured:
[1] = system: B16F10 tyrosinase in situ; conditions: compounds 1, 2, 5 μM; kojic acid 5 μM; α-MSH + IBMX 72 h; excess L-dopa
Method: To evaluate the effect of the compounds on in situ tyrosinase activity, an experiment using B16F10 cells was performed as previously described [34, 35]. […] Excess L-dopa was added to increase their melanin production prior to the acquisition of cell images.
In Situ Tyrosinase Activity Assay Using B16F10 Cells and L-dopa
In situ tyrosinase activity was measured in B16F10 cells using L-dopa, as reported previously [34]. […] The cells were processed as follows: (1) fixing with 4% paraformaldehyde for 40 min, (2) washing with PBS, and (3) permeabilizing with 0.1% Triton X-100 for 2 min. After washing with PBS, the cells were stained with L-dopa (2 mM; 500 μL) at 37 °C for 2 h. Stained images were collected using a camera connected to a microscope (Motic, Hong Kong).

B16F10 cells [2] = experiment: B16F10 cell viability assay (EZ-Cytox); type: cell-based, murine; conditions: 0, 1, 2, 5 μM
Method: Since the 2-phenylbenzoxazole compounds 3, 8, and 13 were identified as being potent mushroom tyrosinase inhibitors, they were used in B16F10-cell-based experiments. Before assessing the biological impact of compounds 3, 8, and 13 in the B16F10 cells, the effect of these compounds on B16F10 cell viability was evaluated. The cells were treated with the compounds at concentrations of 0, 1, 2, and 5 μM for 48 and 72 h, respectively.
3.7. B16F10 Cell Viability Assay
Test samples (3, 8, and 13) were added to each well at final concentrations of 0, 1, 2, and 5 μM and cultivated for 48 and 72 h, respectively. Each well was treated with 10 μL of EZ-Cytox solution (EZ-1000®, DoGenBio, Seoul, Republic of Korea) and cultivated for 2 h. The absorbance of each well was measured at 450 nm using an ELISA reader.

mushroom tyrosinase [3] = target: T1, mushroom tyrosinase (Agaricus bisporus, UniProt C7FF04); experiment: Mushroom tyrosinase activity inhibition assay (L-tyrosine or L-dopa as substrate); type: biochemical; conditions: for IC50: mushroom tyrosinase, 37 °C, mean ± SEM of triplicates
T1 construct: purchased Sigma-Aldrich (St. Louis, MO, USA)
Method: 3.3. Tyrosinase Activity Assay Using Mushroom Tyrosinase
The tyrosinase inhibitory activity of the 2-phenylbenzoxazoles was evaluated using a mushroom tyrosinase activity assay, following a previously described method. An aqueous substrate mixture, consisting of phosphate buffer (pH 6.5; 17.2 mM) and L-tyrosine or L-dopa (345 μM), was prepared. A 96-well plate containing the test sample in dimethyl sulfoxide (DMSO) solution (10 μL), aqueous mushroom tyrosinase solution (20 μL; 200 units), and aqueous substrate mixture (170 μL) in each well was incubated at 37 °C for 15 min for L-dopa and 30 min for L-tyrosine, respectively.

mushroom tyrosinase [4] = target: T1, mushroom tyrosinase; experiment: Kinetic study using mushroom tyrosinase (Lineweaver–Burk and Dixon plots); type: biochemical; conditions: for inhibition mode (Lineweaver–Burk plots): substrate L-dopa 0.5–16 mM; for Ki: substrate L-dopa 1, 2, 4, 8 mM, read-out: inhibition constant Ki (Dixon plot)
Method: For the inhibition mechanism study of the 2-phenylbenzoxazole compounds, kinetic studies of mushroom tyrosinase were conducted. […] Kinetic experiments were performed using various concentrations of L-dopa. Lineweaver–Burk plots were obtained for each compound by plotting the inverse of the L-dopa concentration against the inverse of the initial rate of dopachrome production (Figure 4). In the Lineweaver–Burk plots (Figure 4B,C), the lines for compounds 8 and 13 merged at one point on the y-axis, whereas the lines for 3 (Figure 4A) merged at one point in the second quadrant.
These Dixon plots were obtained by plotting the inhibitor concentration against the inverse of the initial dopachrome production rate (Figure 5). The four lines for each Dixon plot were merged at one point in the second quadrant. The absolute x-coordinate of each merged point represents the Ki value of each compound.
3.4. Kinetic Study Experiment Using Mushroom Tyrosinase
Mushroom tyrosinase was incubated with 2-phenylbenzoxazole inhibitors (3, 8, or 13) in the presence of various concentrations (0.5–16 mM) of L-dopa to measure the initial dopachrome production rate. An aqueous substrate mixture, consisting of phosphate buffer (pH 6.5; 17.2 mM) and L-dopa (345 μM), was prepared. A 96-well plate containing the inhibitor DMSO solution (10 μL), aqueous mushroom tyrosinase solution (20 μL; 20 units), and aqueous substrate mixture (170 μL) in each well was incubated for 20 min at 37 °C. During incubation, the absorbance at 475 nm was recorded at 5 min intervals using an ELISA reader to prepare Lineweaver–Burk plots for each inhibitor.

[5] = system: B16F10 cellular tyrosinase; experiment: Cellular tyrosinase activity assay in B16F10 cells; type: cell-based, murine; conditions: 1, 2, 5 μM; kojic acid 5 μM; α-MSH 1 μM + IBMX 200 μM, 72 h
Method: To investigate the origins of the anti-melanogenic effects of compounds 3, 8, and 13, their impacts on B16F10 cellular tyrosinase inhibition were evaluated. The experiment utilized a similar experimental method and the same concentrations as those used in the melanin content experiment. Compounds 3, 8, and 13 (1, 2, and 5 μM), kojic acid (5 μM: positive control), and stimulators (1 μM α-MSH and 200 μM IBMX) were used in this experiment. Prior to treatment with the stimulators for 72 h, the test samples (3, 8, 13, and kojic acid) were pre-treated for 1 h.
3.9. Cellular Tyrosinase Activity Assay in B16F10 Cells
The effects of compounds 3, 8, and 13 on B16F10 cellular tyrosinase activity were assessed using a previously reported method. B16F10 cells were seeded, treated with the samples and stimulators, and cultured for 72 h in the same manner as for the cellular melanin content assay. To lyse the cultured cells, a lysis buffer was prepared containing 1 mM phenylmethylsulfonyl fluoride, 50 mM phosphate buffer, and 1% Triton X-100 (5:90:5, v/v/v). The cultivated cells were lysed by adding the prepared lysis buffer (100 µL) after washing twice with PBS. The lysed cells were centrifuged for 30 min at 4 °C and 10,000 g after freezing for 1 h at −80 °C. The supernatants (80 µL) and 10 mM L-dopa (20 µL) were added to each well of a 96-well plate and cultivated for 10 min at 37 °C. The optical density was measured at 475 nm using an ELISA reader. Normalization was performed using a Pierce BCA Protein Assay Kit.

B16F10 cells [6] = experiment: Cellular melanin content assay in B16F10 cells; type: cell-based, murine; conditions: 72 h; for melanin content in B16F10 cells: 1, 2, 5 μM, α-MSH 1 μM + IBMX 200 μM; for melanin content in B16F10 cells at 5 μM vs kojic acid: compound 5 μM, kojic acid 5 μM, α-MSH + IBMX
Method: The B16F10 cells were exposed to each compound (1, 2, and 5 μM) for 1 h. Following this, stimulators (1 μM α-MSH [α-melanocyte-stimulating hormone] and 200 μM IBMX [3-isobutyl-1-methylxanthine]) were treated for 72 h. Kojic acid (5 μM) was utilized as a comparative control.
3.8. Cellular Melanin Content Level Assay in B16F10 Cells
The effects of compounds 3, 8, and 13 on B16F10 cellular melanin production were investigated using a previously reported method. B16F10 cells (5 × 10^3 cells per well) were seeded in a 6-well plate and cultured under the same conditions as the cell culture for 24 h. […] Stimulators, including 1 μM α-melanocyte-stimulating hormone (α-MSH) and 200 μM 3-isobutyl-1-methylxanthine (IBMX), were then added. After 72 h of cultivation, the cells were rinsed with PBS, detached from the bottom of each well using Trypsin-EDTA, and centrifuged for 10 min at 10,000× g and 4 °C. The obtained pellets were lysed with 100 μL of 1N-NaOH solution for 1 h at 60 °C and transferred to a 96-well plate. The optical density was measured at 405 nm using an ELISA reader. Normalization was conducted using a Pierce BCA Protein Assay Kit (Thermo Scientific, MA, USA).
Melanin content (%) = (ΔODsam/ΔODcon) × 100%, where ODsam and ODcon represent the optical densities of the sample and control, respectively.

[7] = substrate L-dopa, 15 min, read-out: IC50 Values, L-Dopa
[8] = substrate L-tyrosine, 30 min, read-out: IC50 Values, L-Tyrosine

T1 sequence (C7FF04 1-392 limits assumed): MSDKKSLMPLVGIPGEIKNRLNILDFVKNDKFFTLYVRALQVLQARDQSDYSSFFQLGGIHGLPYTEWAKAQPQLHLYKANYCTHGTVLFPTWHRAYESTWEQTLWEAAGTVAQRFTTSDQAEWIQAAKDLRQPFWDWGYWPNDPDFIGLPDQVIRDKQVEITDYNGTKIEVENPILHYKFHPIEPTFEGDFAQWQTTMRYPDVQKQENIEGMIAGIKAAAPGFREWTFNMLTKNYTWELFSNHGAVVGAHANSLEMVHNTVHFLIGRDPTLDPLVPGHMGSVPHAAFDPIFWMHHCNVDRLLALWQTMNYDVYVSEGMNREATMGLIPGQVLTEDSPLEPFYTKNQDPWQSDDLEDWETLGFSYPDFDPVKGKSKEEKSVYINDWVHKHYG

## Cc1ccc2nc(-c3ccc(O)cc3O)oc2c1 [Compound 3, 4-(6-Methylbenzo[d]oxazol-2-yl)benzene-1,3-diol]
[1]
  melanin formation, in situ tyrosinase activity in B16F10 cells: reduced melanin formation in a concentration-dependent manner
B16F10 cells [2]
  cytotoxicity to B16F10 cells, 48 h: not cytotoxic
  cytotoxicity to B16F10 cells, 72 h: weak cytotoxicity at the highest concentration tested
Mushroom tyrosinase [3]; [7]
  IC50: 16.8 ± 0.57 µM
Mushroom tyrosinase [3]; [8]
  IC50: 0.51 µM
Mushroom tyrosinase [3]; substrate L-tyrosine
  tyrosinase potency relative to kojic acid: 28 times
Mushroom tyrosinase [4]
  inhibition mode (Lineweaver–Burk plots): mixed-type inhibitor
[5]
  B16F10 cellular tyrosinase activity: reduced the stimulator-induced tyrosinase activity in a concentration-dependent manner
B16F10 cells [6]
  melanin content in B16F10 cells: decreased the melanin content in a concentration-dependent manner
  melanin content in B16F10 cells at 5 μM vs kojic acid: decreased the melanin content levels much more strongly than kojic acid

## Oc1ccc(-c2nc3ccc(Cl)cc3o2)c(O)c1 [Compound 8, 4-(6-Chlorobenzo[d]oxazol-2-yl)benzene-1,3-diol]
[1]
  melanin formation, in situ tyrosinase activity in B16F10 cells: reduced melanin formation in a concentration-dependent manner
B16F10 cells [2]
  cytotoxicity to B16F10 cells, 48 h: not cytotoxic
  cytotoxicity to B16F10 cells, 72 h: did not show cytotoxicity
Mushroom tyrosinase [3]; [7]
  IC50: 20.4 ± 1.99 µM
Mushroom tyrosinase [3]; [8]
  IC50: 2.22 ± 0.16 µM
Mushroom tyrosinase [4]
  inhibition mode (Lineweaver–Burk plots): competitive inhibitors
  Ki: 12.5 µM
[5]
  B16F10 cellular tyrosinase activity: reduced the stimulator-induced tyrosinase activity in a concentration-dependent manner
B16F10 cells [6]
  melanin content in B16F10 cells: decreased the melanin content in a concentration-dependent manner
  melanin content in B16F10 cells at 5 μM vs kojic acid: decreased the melanin content levels much more strongly than kojic acid

## Cc1ccc2oc(-c3ccc(O)cc3O)nc2c1 [Compound 13, 4-(5-Methylbenzo[d]oxazol-2-yl)benzene-1,3-diol]
[1]
  melanin formation, in situ tyrosinase activity in B16F10 cells: reduced melanin formation in a concentration-dependent manner
B16F10 cells [2]
  cytotoxicity to B16F10 cells, 48 h: not cytotoxic
  cytotoxicity to B16F10 cells, 72 h: did not show cytotoxicity
Mushroom tyrosinase [3]; [7]
  IC50: 20.8 ± 1.02 µM
Mushroom tyrosinase [3]; [8]
  IC50: 3.5 ± 0.07 µM
Mushroom tyrosinase [4]
  inhibition mode (Lineweaver–Burk plots): competitive inhibitors
  Ki: 17.2 µM
[5]
  B16F10 cellular tyrosinase activity: reduced the stimulator-induced tyrosinase activity in a concentration-dependent manner
B16F10 cells [6]
  melanin content in B16F10 cells: decreased the melanin content in a concentration-dependent manner
